Measured values as given in ChEMBL document CHEMBL1201862, “PubChem BioAssay data set” (2004).
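Five concentrations, 48 hours, 96-well plates. GI50 = concentration required for 50% inhibition of growth.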 Calls of active or inactive are those of the source. Rule as the data show it: active = GI50 up to about 1.1 µM and inactive = higher.

What was measured:
Experiment in all cases: inhibition of tumour cell growth, NCI panel, 48 h
NCI-H226 = tested on: NCI-H226
SW-620 = tested on: SW-620
SK-MEL-2 = tested on: SK-MEL-2
HL-60 = tested on: HL-60
OVCAR-4 = tested on: OVCAR-4
ACHN = tested on: ACHN
SK-MEL-5 = tested on: SK-MEL-5
OVCAR-3 = tested on: OVCAR-3
RPMI-8226 = tested on: RPMI-8226
HCC 2998 = tested on: HCC 2998
NCI-H522 = tested on: NCI-H522
U-251 = tested on: U-251
A549 = tested on: A549
HOP-62 = tested on: HOP-62
HOP-92 = tested on: HOP-92
SK-MEL-28 = tested on: SK-MEL-28

Measured: GI50

C/C(CN1C(=O)c2ccccc2C1=O)=N\NS(=O)(=O)c1ccc(Cl)cc1
inactive: NCI-H226 > 100 µM | SW-620 > 100 µM | SK-MEL-2 > 100 µM | HL-60 > 100 µM | OVCAR-4 > 100 µM | ACHN > 100 µM | SK-MEL-5 > 100 µM | OVCAR-3 > 100 µM | RPMI-8226 > 100 µM | HCC 2998 > 100 µM | NCI-H522 > 100 µM | U-251 > 100 µM | A549 > 100 µM | HOP-62 > 100 µM

CC(=O)C1C(=O)C(=O)N(CCN2C(=O)C(=O)C(C(C)=O)C2=O)C1=O (stereo unspecified)
inactive: NCI-H226 > 100 µM | SW-620 > 100 µM | HOP-92 > 100 µM | SK-MEL-2 > 100 µM | OVCAR-4 > 100 µM | ACHN > 100 µM | SK-MEL-5 > 100 µM | OVCAR-3 > 100 µM | RPMI-8226 > 100 µM | HCC 2998 > 100 µM | NCI-H522 > 100 µM | U-251 > 100 µM | SK-MEL-28 > 100 µM | HOP-62 > 100 µM

O=C1[C@H]2ON(c3ccccc3)C(c3ccccc3)[C@H]2C(=O)N1c1ccc(Cc2ccc(N3C(=O)[C@@H]4ON(c5ccccc5)C(c5ccccc5)[C@@H]4C3=O)cc2)cc1 (stereo partly specified)
inactive: NCI-H226 > 100 µM | SW-620 > 100 µM | HOP-92 > 100 µM | SK-MEL-2 > 100 µM | HL-60 > 100 µM | OVCAR-4 > 100 µM | ACHN > 100 µM | SK-MEL-5 > 100 µM | OVCAR-3 > 100 µM | RPMI-8226 > 100 µM | HCC 2998 > 100 µM | U-251 > 100 µM | SK-MEL-28 > 100 µM | A549 > 100 µM | HOP-62 > 100 µM

CC(C)N(C(=O)C12C3C4C5C3C1(C(=O)O)C5C42)C(C)C (stereo unspecified)
inactive: SW-620 > 100 µM | HOP-92 > 100 µM | SK-MEL-2 > 100 µM | HL-60 > 100 µM | OVCAR-4 > 100 µM | ACHN > 100 µM | SK-MEL-5 > 100 µM | OVCAR-3 > 100 µM | RPMI-8226 > 100 µM | HCC 2998 > 100 µM | NCI-H522 > 100 µM | U-251 > 100 µM | SK-MEL-28 > 100 µM | A549 > 100 µM | HOP-62 > 100 µM

COc1cccc(N2C(=O)[C@H]3[C@H]4CC(C(C)(C)C)CC[C@H]4c4c([nH]c5ccccc45)[C@H]3C2=O)c1 (stereo partly specified)
inactive: NCI-H226 22.1 µM | SW-620 17.4 µM | SK-MEL-2 20.3 µM | HL-60 28 µM | SK-MEL-5 18 µM | OVCAR-3 15.7 µM | RPMI-8226 15.4 µM | HCC 2998 28.4 µM | NCI-H522 19.4 µM | SK-MEL-28 18.7 µM | A549 15.3 µM | HOP-62 17.7 µM

CC(C)[C@@H]1C=C(c2ccccc2)c2ccccc2C1C(C#N)(C#N)C(C)C (stereo partly specified)
inactive: NCI-H226 > 100 µM | SW-620 > 100 µM | HOP-92 > 100 µM | SK-MEL-2 > 100 µM | HL-60 31.7 µM | OVCAR-4 82.4 µM | ACHN > 100 µM | SK-MEL-5 39.7 µM | OVCAR-3 78.9 µM | RPMI-8226 19 µM | HCC 2998 90.4 µM | U-251 > 100 µM | SK-MEL-28 > 100 µM | A549 79.4 µM | HOP-62 > 100 µM

Cc1nc2ccccc2c(=O)n1/N=C(\N=N\c1cc(Cl)ccc1Cl)c1cccc(-c2ccco2)c1
inactive: NCI-H226 > 100 µM | SW-620 > 100 µM | HOP-92 27.6 µM | SK-MEL-2 84.5 µM | HL-60 > 10 µM | OVCAR-4 > 100 µM | ACHN 73.6 µM | SK-MEL-5 96.4 µM | OVCAR-3 > 100 µM | RPMI-8226 42.8 µM | HCC 2998 > 100 µM | U-251 > 100 µM | SK-MEL-28 > 100 µM | A549 > 100 µM | HOP-62 > 100 µM

O=S(=O)(N/N=C/c1ccc(Cl)c(Cl)c1)c1ccccc1
inactive: NCI-H226 58.5 µM | SW-620 53 µM | HOP-92 9.82 µM | SK-MEL-2 34.2 µM | HL-60 26.6 µM | OVCAR-4 55 µM | ACHN 43.1 µM | SK-MEL-5 54 µM | OVCAR-3 24.5 µM | RPMI-8226 47 µM | HCC 2998 30.2 µM | U-251 33.7 µM | SK-MEL-28 72.3 µM | A549 39.7 µM | HOP-62 35.7 µM

CCc1c(OC(C)=O)c2c(NC3OC(COC(C)=O)C(OC(C)=O)C(OC(C)=O)C3OC(C)=O)nc(OC)nc2oc1=O (stereo unspecified)
inactive: NCI-H226 > 100 µM | SW-620 > 100 µM | SK-MEL-2 > 100 µM | HL-60 > 100 µM | OVCAR-4 > 100 µM | ACHN > 100 µM | SK-MEL-5 > 100 µM | OVCAR-3 > 100 µM | RPMI-8226 > 100 µM | HCC 2998 > 100 µM | U-251 > 100 µM | A549 > 100 µM | HOP-62 > 100 µM

O=[N+]([O-])c1nccn1COCCI
inactive: NCI-H226 > 100 µM | SW-620 > 100 µM | HOP-92 > 100 µM | SK-MEL-2 > 100 µM | HL-60 > 100 µM | OVCAR-4 > 100 µM | ACHN > 100 µM | SK-MEL-5 > 100 µM | OVCAR-3 > 100 µM | RPMI-8226 > 100 µM | NCI-H522 > 100 µM | U-251 > 100 µM | SK-MEL-28 > 100 µM | A549 > 100 µM | HOP-62 > 100 µM

CC1CCC2(OCCO2)[C@]2(C)CC(O)C(=O)C=C12 (stereo partly specified)
inactive: NCI-H226 > 100 µM | SW-620 > 100 µM | HOP-92 > 100 µM | SK-MEL-2 > 100 µM | HL-60 > 100 µM | ACHN > 100 µM | SK-MEL-5 > 100 µM | OVCAR-3 > 100 µM | RPMI-8226 > 100 µM | HCC 2998 > 100 µM | NCI-H522 > 100 µM | U-251 > 100 µM | SK-MEL-28 > 100 µM | A549 > 100 µM

Cc1ccccc1-n1c2nc(=O)n(C)c(=O)c-2nc2ccccc21
inactive: NCI-H226 21 µM | SW-620 13.4 µM | SK-MEL-2 15.1 µM | HL-60 11.1 µM | OVCAR-4 13.6 µM | ACHN 8.39 µM | SK-MEL-5 10.6 µM | OVCAR-3 2.33 µM | RPMI-8226 16.3 µM | HCC 2998 10.8 µM | NCI-H522 14.9 µM | U-251 17.3 µM | A549 13.2 µM | HOP-62 38.5 µM

COc1ccc(CC2NCCc3c2[nH]c2ccccc32)cc1 (stereo unspecified)
inactive: NCI-H226 > 100 µM | SW-620 51.9 µM | HOP-92 16 µM | SK-MEL-2 > 100 µM | HL-60 22.4 µM | OVCAR-4 54 µM | ACHN 66.8 µM | SK-MEL-5 40.9 µM | OVCAR-3 64.6 µM | RPMI-8226 30.4 µM | HCC 2998 23.7 µM | U-251 82 µM | SK-MEL-28 > 100 µM | A549 > 100 µM | HOP-62 > 100 µM
